Results on eleven molecules are retold here after patent US20230172200A1, “A LIQUID ANTI-PATHOGENIC AGRICULTURAL COMPOSITION” (ORO AGRI INC., priority 2019, published 2023).

Each structure is given as a SMILES string.

The nature of this data set: Paraffin wax solubility test. The format is physicochemical. As to conditions: 2.0 g paraffin wax in 98 g solvent, 25 °C; for Dissolution Time: stirring at 350 rpm; for Observation: up to 24-hours stirring. The text has this: A method to evaluate the capability of a solvent to dissolve paraffin wax was developed and it helps to understand how will be performed certain solvent when applied to an epicuticular surface of a plant or an insect.

Turning to `CCCCCCCCCCCC(=O)OCC(CC)CCCC` (stereo not shown) [2-ethylhexyl laurate], the “Dissolution Time” value is 930 min and the Observation result was “stable at 25° c”.

`CCCCCCCCCC(=O)N(C)C` [N,N-dimethyldecanamide]: the Observation result is given as “undissolved after”.

On to `O=C1CCCCC1` [cyclohexanone], for which the Observation result was “undissolved after”.

Regarding `C[S+](C)[O-]` [dimethyl sulfoxide], the Observation entry is “undissolved after”.

As for `CCCCCCCCCCCC(=O)OCCC(C)C` [isoamyl laurate], the “Dissolution Time” value was 620 min and the Observation result was “stable at 25° c”.

Regarding `CCCCCCCCCCCC(=O)OCC(C)C` [isobutyl laurate], the “Dissolution Time” value came out at 340 min and the Observation entry is given as “stable at 25° c”.

As to `CCCCCCCCCCCC(=O)OC(C)C` [isopropyl laurate], the “Dissolution Time” value was 102 min and the Observation result is listed as “stable at 25° c”.

Regarding `CCCCCCCCCCCCCC(=O)OC(C)C` [isopropyl myristate], the Observation entry was “stable at 25° c”.

As to `CCCCCCCCCCCC(=O)OC` [methyl laurate], the “Dissolution Time” value worked out at 300 min and the Observation entry is “stable at 25° c”.

For `CC1COC(=O)O1` (stereo not shown) [propylene carbonate], the Observation entry was “undissolved after”.

For the molecule `OCC1CCCO1` (stereo not shown) [tetrahydrofurfural alcohol], the Observation entry was “undissolved after”.
